The target of this test is T1, Na^+/H^+ exchange in cells (Rattus norvegicus, UniProt P26431).
T1 construct: The cells were dissociated by gentle strokes, and the resulting suspension was filtrated through six layers of surgical gauze; from tissue; host or cells: thymus cells (thymocytes) of a male SD rat
In words: Inhibitory activity on Na^+/H^+ exchange in cells. Format: cell-based. Particulars: rat (male SD) thymus cells; initial increase in intracellular pH (BCECF fluorescence) after adding NaCl (final 100 mM), 37° C. The protocol:
[2] Inhibitory activity on Na^+/H^+ exchange in cells
Procedure was carried out according to a similar manner to the method described in Enzymology 173, 777 (1989).
Cell preparation: One male SD strain rat weighing 250-300 g was sacrificed with the blow on the head. Then, the thymus was removed into ice-cold NaCl medium (140 mM sodium chloride, 1 mM potassium chloride, 1 mM calcium chloride, 1 mM magnesium chloride, 10 mM glucose and 20 mM N-2-hydroxyethylpiperazine-N′-2-ethanesulfonic acid (HEPES)—pH 7.3), cut in small fragments, and transferred to glass homogenizer. […]
Assay: The pellet was washed with Na-free buffer (140 mM Trimethyl ammonium, 4 mM KCl, 1 mM CaCl2, 1 mM MgSO4, 1 mM NaH2PO4, 18 mM glucose, 20 mM HEPES (pH 7.4)), then incubated with 16 μM of acetoxymethyl ester of 2′, 7′-bis(2-carboxyethyl)-5,6-carboxyfluorescein (BCECF-AM, Calbiochem Co.) and 20 mM NH4Cl at 37° C. for 30 minutes. […] Intracellular pH was measured at 37° C. with a spectrofluorometer (FS100, Kowa company, Japan) using the ratio of the emission (530 nm) obtained at 490 nm excitation wavelengths. […] The BCECF fluorescence signals were calibrated by titration with 1 M 2-(N-morpholino)ethanesulfonic acid (MES) after permeabilization of the cells with 0.5% Triton.

Counter-ions that a name gives are not always drawn. Bounds are passed on as bounds.

Drawing on patent publication US6346527B1, “Guanidine derivatives” (Fujisawa Pharmaceutical Co., Ltd., priority 1998, dated 2002), this text covers IC50 for one compound.

T1 sequence (P26431 whole entry): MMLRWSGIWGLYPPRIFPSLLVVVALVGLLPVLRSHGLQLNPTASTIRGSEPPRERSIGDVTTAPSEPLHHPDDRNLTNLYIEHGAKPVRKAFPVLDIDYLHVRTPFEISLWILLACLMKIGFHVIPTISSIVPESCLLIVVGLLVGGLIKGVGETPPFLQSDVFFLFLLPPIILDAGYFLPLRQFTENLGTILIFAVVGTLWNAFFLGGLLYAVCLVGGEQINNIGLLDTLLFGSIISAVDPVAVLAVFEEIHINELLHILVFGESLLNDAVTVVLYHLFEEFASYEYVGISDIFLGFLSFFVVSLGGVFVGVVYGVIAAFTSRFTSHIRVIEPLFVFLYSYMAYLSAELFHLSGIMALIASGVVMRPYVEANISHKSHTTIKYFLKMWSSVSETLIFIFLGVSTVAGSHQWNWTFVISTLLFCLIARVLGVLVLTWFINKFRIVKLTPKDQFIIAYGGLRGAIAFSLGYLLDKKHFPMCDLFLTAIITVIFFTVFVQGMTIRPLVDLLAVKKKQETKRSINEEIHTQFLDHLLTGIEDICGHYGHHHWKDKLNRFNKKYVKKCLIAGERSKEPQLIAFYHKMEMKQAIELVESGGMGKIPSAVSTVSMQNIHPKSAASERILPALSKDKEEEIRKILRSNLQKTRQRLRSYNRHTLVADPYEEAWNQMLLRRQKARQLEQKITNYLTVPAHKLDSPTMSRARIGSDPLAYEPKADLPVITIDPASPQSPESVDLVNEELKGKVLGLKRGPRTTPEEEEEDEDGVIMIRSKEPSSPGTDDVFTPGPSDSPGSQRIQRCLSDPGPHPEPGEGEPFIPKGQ

As to `N=C(N)NC(=O)C1=Cc2cccc(/C=C/C(=O)O)c2OCC1` [(a), [9-[(E)-(2-Carboxyvinyl)]-2,3-dihydro-1-benzoxepin-4-carbonyl]guanidine hydrochloride], the IC50 is < 100 nM.
